From patent US7253177B2, “Synthesis and antimalarial activity of pyrrolo[3,2-f]quinazoline-1,3-diamine derivatives” (United States of America as Represented by the Secretary of …, priority 2004, dated 2007)
Converted amounts (≈) assume the structure as drawn.

How the values were obtained:
[1] = system: Plasmodium falciparum RCS (Isolates from Brazil); test: In vitro antimalarial study, [3H]hypoxanthine uptake, RCS clone; assay type: cell-based; details: P. falciparum RCS clone
Description: (§1) B. Antimalarial Activities: (a). In Vitro Antimalarial Studies. The in vitro assays were conducted by using a modification of the semiautomated microdilution technique of Desjardins et al and Chulay et al.. Four P. falciparum malaria parasite clones, from CDC Indochina III (W-2), CDC Sierra Leone I (D-6), Southeast Asia Isolates (TM91C235) and RCS (Isolates from Brazil) were utilized in susceptibility testing. They were derived by direct visualization and micromanipulation from patient isolates. The W-2 clone is susceptible to mefloquine but resistant to chloroquine, sulfadoxine, pyrimethamine, and quinine, whereas the D-6 clone is naturally resistant to mefloquine but susceptible to chloroquine, sulfadoxine, pyrimethamine and quinine. Test compounds were initially dissolved in DMSO and diluted 400 fold in RPMI 1640 culture medium supplemented with 25 mM Hepes, 32 mM NaHCO3 and 10% Albumax I (Gibco BRL, Grand Island, N.Y.). These solutions were subsequently serially diluted two-fold with a Biomek 1000 (Beckman, Fullerton, Calif.) over 11 different concentrations. The parasites were exposed to serial dilutions of each compound for 48 hrs and incubated at 37° C. with 5% O2, 5% CO2 and 90% N2 prior to the addition of [^3H]hypoxanthine. After a further incubation of 18 hrs, parasite DNA was harvested from each microtiter well using Packard Filtermate 196 Harvester (Meriden, Conn.) onto glass filters. Uptake of [^3H]hypoxanthine was measured with a Packard Topcount Scintillation. Concentration-response data were analyzed by a non-linear regression logistic dose response model and the IC50 values (50% inhibitory concentrations) for each compound were calculated. (Table 3). (b). In Vivo Antimalarial Studies against P. berghei in mice: The in vivo efficacy of the artelinic acid analogs were determined in a modified Thompson test. This test measures the survivability of mice and parasitemia clearance following administration of drug on days 3-5 post infection. In brief, 5×10^6 P. berghei-infected erythrocytes (KBG-173 strain) were inoculated intraperitoneally to female mice that weighed 24-30 g. By day three post-infection, parasitemia ranged from 1.0-3.7%. Each drug, dissolved in 5% sodium bicarbonate, was administered PO twice daily from day 3-5 post-infection. Total doses for each drug ranged from 1.5-384 mg/kg with 8 mice included in each dosage group. The percent suppression of parasitemia in the treated mice compared to the untreated controls was determined for each test compound; the SD-50 (fifty percent suppression dose) and SD-90 were determined from a non-linear regression logistic dose response fit at day 6 parasitemia data. Survival of mice to day 60 post-infection was considered a cure (C). Compounds were considered active (A) when the survival time of the treated mice was greater than twice the control mice, i.e., 12-14 day (Table 4-5). (c). Sporozoite Induced Test Each compound is ground with a mortar & pestle and suspended in 0.5% hydroxyethylcellulose—0.1% Tween 80 for compounds to be administered PO and those given SC are suspended in peanut oil. Each compound is prepared at 3 different dose levels as requested by WRAIR. Compounds are administered either PO or SC to mice once 4 hr before inoculation of sporozoites. Four-week-old male CD-1 mice, purchased from Charles River and weighing 16-17 g, are placed 5 per cage and allowed to acclimate for 4 days before being treated and then inoculated with sporozoites. They are fed food and water ad-lib and maintained at 76° F. with 12 hr light and 12 hr darkness. The cages and water bottles are changed biweekly. The mice are weighed on Days 0, 3 and 6 then biweekly when blood films are taken. Plasmodium yoelii (17×) is used to infect mice that will be used to infect the mosquitoes. Mice are given a single dose of test compound 4 hr before being inoculated intraperitoneally with 2.5×10^5 sporozoites of Plasmodium yoelii on Day 0. […]

[2] = system: Plasmodium falciparum D-6 clone (CDC Sierra Leone I); test: In vitro antimalarial study, [3H]hypoxanthine uptake, D-6 clone; assay type: cell-based
Description: as §1

Structure (SMILES)	IC50 RCS [1]	IC50 D-6 ([2]; P. falciparum D-6 clone)	IC50 ([1]; Plasmodium falciparum)	IC50 ([2]; Plasmodium falciparum, read-out: IC50 D-6)
CCOC(=O)Nc1nc(NC(=O)OCC)c2c(ccc3c2ccn3Cc2ccccc2C(F)(F)F)n1 [Compound 2b]	>250 ng/mL	7.9727 ng/mL (≈ 15.9 nM)		
CC(=O)N(C(C)=O)c1nc(N(C(C)=O)C(C)=O)c2c(ccc3c2ccn3Cc2ccccc2C(F)(F)F)n1 [Compound 3e, 1,3-Bis(diacetylamino)-7-(2-trifluoromethyl)benzyl-7H-pyrrolo[3,2-f]quinazoline]			0.0236 ng/mL (≈ 0.0449 nM)	0.0236 ng/mL (≈ 0.0449 nM)
